This note sets out measurements from ChEMBL document CHEMBL1141872 (Bioorg Med Chem Lett, 2005).

The target in data set [1] is 3',5'-cyclic-AMP phosphodiesterase 4B (Homo sapiens, UniProt Q07343). Description: Inhibitory activity against PDE4B.
Data set [2] concerns the target 3',5'-cyclic-AMP phosphodiesterase 4A (Homo sapiens, UniProt P27815). Description: Inhibitory activity against PDE4A.
For data set [3], the target named is T1, Phosphodiesterase 4 (Homo sapiens, UniProt P27815+Q08499+Q07343+Q08493). As to the kind of experiment: Inhibition of LPS-induced TNFalpha production in human whole blood. It is filed as functional, tissue-based.
Data set [4] addresses 3',5'-cyclic-AMP phosphodiesterase 4D (Homo sapiens, UniProt Q08499). Description: Inhibitory activity against PDE4D.
Data set [5] has as its target 3',5'-cyclic-AMP phosphodiesterase 4C (Homo sapiens, UniProt Q08493). Description: Inhibitory activity against PDE4C.
For data set [6], the system named is Cavia porcellus. As to the kind of experiment: Inhibition of ovalbumin-induced bronchoconstriction in guinea pig at 0.3 mg/kg, ip. Format: functional. Particulars: route intraperitoneal.
Data set [7] can be described thus: Emetic threshold as plasma concentration in ferrets after 1.0 mg/kg oral dose. It is filed as ADME, organism-based, Mustela putorius furo. Further details: dose 1 mg/kg, route oral. The settings on record: ferret, read-out: Emesis_Cmax.
A short description of data set [8]: Emetic threshold as plasma concentration in squirrel monkeys after 3 mg/kg oral dose. It is filed as ADME, organism-based. Further details: dose 3 mg/kg, route oral. The settings on record: saimiri, read-out: Emesis_Cmax.
Data set [9] deals with Cavia porcellus. Description: Inhibition of ovalbumin-induced bronchoconstriction in guinea pig at 0.1 mg/kg, ip. Format: functional. The settings on record: route intraperitoneal.
The target of data set [10] is T1, Phosphodiesterase 4. Description: Inhibition of LPS-induced TNFalpha production in squirrel monkey whole blood. Format: functional, tissue-based, Saimiri sciureus. The settings on record: target entry is the homologue from another species.
In a further data set the test system is Mustela putorius furo. As to the kind of experiment: Emetic threshold as plasma concentration in ferrets after 10 mg/kg oral dose. Further details: dose 10 mg/kg, route oral. Format: ADME, organism-based. Particulars: ferret, in vivo.
Data set [11] can be described thus: Emetic threshold as plasma concentration in squirrel monkeys after 10 mg/kg oral dose. Further details: dose 10 mg/kg, route oral. Particulars: saimiri, read-out: Emesis_Cmax. Format: ADME, organism-based.
Data set [12] concerns Cavia porcellus. Description: Inhibition of ovalbumin-induced bronchoconstriction in guinea pig at 1 mg/kg, ip. It is filed as functional. The settings on record: route intraperitoneal.
Data set [13] relates to Ovis aries. Description: Inhibition of early-phase antigen induced bronchoconstriction in Ascaris sensitive sheep at 0.5 mg/kg/day, iv. Format: functional.
Data set [14] can be described thus: Emetic threshold as plasma concentration in squirrel monkeys after 0.5 mg/kg oral dose. It is filed as ADME, organism-based. The arrangement: dose 0.5 mg/kg, route oral. The settings on record: saimiri, read-out: Emesis_Cmax.
Data set [15] relates to Ovis aries. Description: Inhibition of late-phase antigen induced bronchoconstriction in Ascaris sensitive sheep at 0.5 mg/kg/day, iv. It is filed as functional.
The subject of data set [16] is Cavia porcellus. As to the kind of experiment: Inhibition of ovalbumin-induced bronchoconstriction in guinea pig at 0.01 mg/kg, ip. Format: functional. The settings on record: route intraperitoneal.
A short description of data set [17]: Tmax in rat at 20 mg/kg, po. Format: ADME, organism-based. Further details: dose 20 mg/kg, route oral. Particulars: in vivo.
Data set [18] is described as follows: Cmax in rat at 20 mg/kg, po. Format: ADME, organism-based. The arrangement: dose 20 mg/kg, route oral. The settings on record: in vivo.
The subject of data set [19] is Cavia porcellus. As to the kind of experiment: Inhibition of ovalbumin-induced bronchoconstriction in guinea pig at 0.03 mg/kg, ip. Particulars: route intraperitoneal. Format: functional.
Data set [20] can be described thus: Oral bioavailability in rat at 20 mg/kg, po. Format: ADME, organism-based. Particulars: in vivo.
A short description of data set [21]: Emetic threshold as plasma concentration in ferrets after 30 mg/kg oral dose. It is filed as ADME, organism-based, Mustela putorius furo. The arrangement: dose 30 mg/kg, route oral. Particulars: ferret, read-out: Emesis_Cmax.

3',5'-cyclic-AMP phosphodiesterase 4A, sequence (P27815 whole entry): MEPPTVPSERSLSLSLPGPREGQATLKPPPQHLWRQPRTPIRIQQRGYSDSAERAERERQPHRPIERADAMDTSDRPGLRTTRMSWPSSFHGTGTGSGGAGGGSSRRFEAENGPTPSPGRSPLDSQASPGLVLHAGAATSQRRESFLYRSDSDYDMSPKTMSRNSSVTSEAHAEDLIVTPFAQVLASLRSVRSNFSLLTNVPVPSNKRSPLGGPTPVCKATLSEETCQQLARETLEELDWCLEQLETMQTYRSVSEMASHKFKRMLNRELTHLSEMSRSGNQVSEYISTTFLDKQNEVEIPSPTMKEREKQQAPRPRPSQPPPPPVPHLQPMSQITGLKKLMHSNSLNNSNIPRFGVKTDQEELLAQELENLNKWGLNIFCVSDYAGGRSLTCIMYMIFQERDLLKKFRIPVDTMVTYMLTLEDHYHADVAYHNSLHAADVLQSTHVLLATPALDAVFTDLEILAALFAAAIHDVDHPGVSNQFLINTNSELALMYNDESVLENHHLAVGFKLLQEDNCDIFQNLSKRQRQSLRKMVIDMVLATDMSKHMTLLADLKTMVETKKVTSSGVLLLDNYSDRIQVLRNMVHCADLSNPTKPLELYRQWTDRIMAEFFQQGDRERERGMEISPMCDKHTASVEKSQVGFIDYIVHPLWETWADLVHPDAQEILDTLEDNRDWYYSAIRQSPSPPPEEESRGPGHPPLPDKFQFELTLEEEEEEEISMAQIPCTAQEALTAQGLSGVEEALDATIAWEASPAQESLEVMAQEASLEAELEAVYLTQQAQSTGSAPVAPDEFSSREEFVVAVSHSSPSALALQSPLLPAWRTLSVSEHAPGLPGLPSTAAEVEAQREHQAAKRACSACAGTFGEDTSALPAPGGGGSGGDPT
3',5'-cyclic-AMP phosphodiesterase 4C, sequence (Q08493 whole entry): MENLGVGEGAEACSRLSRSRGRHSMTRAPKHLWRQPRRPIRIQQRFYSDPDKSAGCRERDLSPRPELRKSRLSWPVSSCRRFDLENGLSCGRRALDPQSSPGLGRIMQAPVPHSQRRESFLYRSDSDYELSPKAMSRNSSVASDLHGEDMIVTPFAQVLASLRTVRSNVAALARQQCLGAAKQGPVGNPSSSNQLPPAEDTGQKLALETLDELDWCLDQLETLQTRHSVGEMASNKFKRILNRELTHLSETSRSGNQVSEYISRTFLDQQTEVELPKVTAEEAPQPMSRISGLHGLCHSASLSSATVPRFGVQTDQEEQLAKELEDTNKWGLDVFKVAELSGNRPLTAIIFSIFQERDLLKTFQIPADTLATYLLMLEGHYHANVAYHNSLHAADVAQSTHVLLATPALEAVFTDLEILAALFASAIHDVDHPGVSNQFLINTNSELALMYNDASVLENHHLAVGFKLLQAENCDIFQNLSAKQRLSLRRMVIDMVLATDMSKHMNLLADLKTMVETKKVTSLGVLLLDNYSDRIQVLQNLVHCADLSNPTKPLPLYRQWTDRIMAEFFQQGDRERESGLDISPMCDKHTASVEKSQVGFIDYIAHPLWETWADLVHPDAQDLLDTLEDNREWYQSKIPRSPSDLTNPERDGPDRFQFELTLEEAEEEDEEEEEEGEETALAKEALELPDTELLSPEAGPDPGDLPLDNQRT
3',5'-cyclic-AMP phosphodiesterase 4D, sequence (Q08499 whole entry): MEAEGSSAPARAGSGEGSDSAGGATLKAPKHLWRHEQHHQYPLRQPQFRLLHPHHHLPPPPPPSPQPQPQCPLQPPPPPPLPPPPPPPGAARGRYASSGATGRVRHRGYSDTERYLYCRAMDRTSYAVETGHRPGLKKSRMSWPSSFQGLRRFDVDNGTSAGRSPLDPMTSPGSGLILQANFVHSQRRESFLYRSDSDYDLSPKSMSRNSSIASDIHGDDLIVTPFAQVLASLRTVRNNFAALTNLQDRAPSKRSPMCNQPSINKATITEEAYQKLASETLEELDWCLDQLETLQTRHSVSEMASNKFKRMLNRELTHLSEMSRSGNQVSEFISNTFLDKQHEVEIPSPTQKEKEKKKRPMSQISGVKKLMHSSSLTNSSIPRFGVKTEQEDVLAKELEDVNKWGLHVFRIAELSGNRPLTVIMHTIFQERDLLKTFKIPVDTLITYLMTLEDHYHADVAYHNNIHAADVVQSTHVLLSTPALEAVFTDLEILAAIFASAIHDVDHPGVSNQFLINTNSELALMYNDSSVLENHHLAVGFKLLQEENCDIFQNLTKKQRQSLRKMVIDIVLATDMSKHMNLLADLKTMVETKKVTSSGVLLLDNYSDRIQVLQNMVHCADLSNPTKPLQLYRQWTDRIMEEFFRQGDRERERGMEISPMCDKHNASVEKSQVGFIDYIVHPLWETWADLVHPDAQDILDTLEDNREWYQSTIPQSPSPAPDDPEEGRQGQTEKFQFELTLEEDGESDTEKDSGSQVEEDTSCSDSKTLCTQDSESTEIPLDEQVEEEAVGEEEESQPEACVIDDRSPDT
3',5'-cyclic-AMP phosphodiesterase 4B, sequence (Q07343 whole entry): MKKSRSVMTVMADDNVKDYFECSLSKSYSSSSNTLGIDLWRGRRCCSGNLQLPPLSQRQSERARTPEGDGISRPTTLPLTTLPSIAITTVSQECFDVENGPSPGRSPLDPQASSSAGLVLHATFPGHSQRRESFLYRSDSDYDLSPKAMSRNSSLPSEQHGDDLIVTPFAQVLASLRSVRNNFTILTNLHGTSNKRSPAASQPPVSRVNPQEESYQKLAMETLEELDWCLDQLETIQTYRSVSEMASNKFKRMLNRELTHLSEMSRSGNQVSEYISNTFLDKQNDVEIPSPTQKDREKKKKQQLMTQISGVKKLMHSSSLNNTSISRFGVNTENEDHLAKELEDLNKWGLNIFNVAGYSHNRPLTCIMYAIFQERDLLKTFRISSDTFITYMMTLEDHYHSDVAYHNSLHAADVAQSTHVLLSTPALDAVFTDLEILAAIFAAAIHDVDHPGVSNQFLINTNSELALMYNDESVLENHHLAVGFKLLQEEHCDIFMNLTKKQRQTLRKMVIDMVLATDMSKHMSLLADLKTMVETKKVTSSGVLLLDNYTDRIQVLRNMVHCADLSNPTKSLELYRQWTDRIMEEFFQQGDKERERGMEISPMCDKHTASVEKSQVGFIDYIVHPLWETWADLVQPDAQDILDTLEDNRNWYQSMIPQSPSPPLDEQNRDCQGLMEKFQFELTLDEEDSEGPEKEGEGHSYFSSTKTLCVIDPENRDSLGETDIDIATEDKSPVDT

Consider `CC(C)c1cc(-c2cccc(/C=C(\c3ccc(S(C)(=O)=O)cc3)c3nccs3)c2)c2ncccc2c1`, for which the half-inhibitory concentration (IC50) in [1] turned out to be 0.3 nM; in [2], 0.47 nM; against Phosphodiesterase 4 [3], 120 nM; in [4] it was 0.19 nM; in [5], 0.7 nM.
With `CC(C)c1cc(-c2cccc(/C=C(/C(=O)O)c3ccc(S(C)(=O)=O)cc3)c2)c2ncccc2c1`, the IC50 in data set [1] turned out to be 0.3 nM; in data set [2] it was 0.3 nM; against Phosphodiesterase 4 [3] it was 1600 nM; in data set [4] it was 0.5 nM; in data set [5], 3.8 nM.
For `Cc1ccc(/C(=C/c2cccc(-c3cc(C(C)C)cc4cccnc34)c2)c2ccc(S(C)(=O)=O)cc2)nc1`, the IC50 in [1] came out at 0.2 nM; in data set [2], 0.2 nM; at Phosphodiesterase 4 [3] it was 120 nM; in [4] it was 0.2 nM; in [5], 0.4 nM.
As for `Cc1noc(/C(=C/c2cccc(-c3cc(C(C)C)cc4cccnc34)c2)c2ccccn2)n1`, the IC50 is 0.3 nM in data set [1]; 0.5 nM in data set [2]; 1200 nM at Phosphodiesterase 4 [3]; 0.6 nM in data set [4]; 5.7 nM in data set [5].
As to `COc1cccc(-c2cc(Cc3ccncc3)cc3cccnc23)c1`, the half-maximal inhibitory concentration (IC50) in [1] worked out at 2.3 nM; in data set [2], 1.5 nM; on Phosphodiesterase 4 [3] it was 8300 nM; in data set [4], 2.5 nM; in [5], 3.3 nM. Further, 0.3 mg/kg produced 70% inhibition in vivo with Cavia porcellus [6]. The Cmax in data set [7] turned out to be 200 nM.
On to `CC(C)c1cc(-c2cccc(C(Cc3cc[n+]([O-])cc3)c3ccc(Cl)cc3)c2)c2ncccc2c1` (stereo not given), for which the IC50 in data set [1] is 19 nM; in data set [2], 52 nM; at Phosphodiesterase 4 [3], 11000 nM; in data set [4], 45 nM; in data set [5], 68 nM.
As to `CC(C)NC(=O)/C(=C/c1cccc(-c2cc(C(C)(C)S(C)(=O)=O)cc3cccnc23)c1)c1ccc(S(C)(=O)=O)cc1`, the half-maximal inhibitory concentration (IC50) came out at 0.5 nM in data set [1]; 0.9 nM in data set [2]; 930 nM on Phosphodiesterase 4 [3]; 2.3 nM in data set [4]; 14 nM in data set [5]. In data set [8], the Cmax is above 2500 nM. In addition, in the data set on Cavia porcellus [9], the inhibition in vivo at 0.1 mg/kg is 59%.
Take `CC(C)c1cc(-c2cccc(CC(c3ccncc3)C(C)(C)O)c2)c2ncccc2c1` (stereo not given): the 50% inhibitory concentration (IC50) in data set [1] is 1.8 nM; in data set [2] it was 3.4 nM; against Phosphodiesterase 4 [10], 450 nM; on Phosphodiesterase 4 [3], 12000 nM; in [4] it was 4.4 nM; in data set [5] it was 106 nM. The Emesis_Cmax with Mustela putorius furo worked out at 2.9 µM. For the same compound, in data set [11], the Cmax was found to be 11900 nM. This compound also yielded an inhibition in vivo at 1 mg/kg in the data set with Cavia porcellus [12] of 47%.
In the case of `CC(C)c1cc(-c2cccc(/C=C(/c3ccc(C(C)(C)O)cc3)c3ccc(S(C)(=O)=O)cc3)c2)c2ncccc2c1`, the IC50 in data set [1] was found to be 0.3 nM; in data set [2] it was 0.4 nM; against Phosphodiesterase 4 [3], 610 nM; in data set [4] it was 0.5 nM; in data set [5] it was 0.5 nM.
For the compound `CC(c1cc(-c2cccc(/C=C(\c3ccc(S(C)(=O)=O)cc3)c3ncc(C(C)(C)O)s3)c2)c2ncccc2c1)S(C)(=O)=O` (stereo not given), the 50% inhibitory concentration (IC50) in [1] came to 1.1 nM; in data set [2], 1.7 nM; on Phosphodiesterase 4 [3], 210 nM; in [4] it was 2 nM; in data set [5] it was 11 nM.
Consider `CC(C)NC(=O)/C(=C\c1cccc(-c2cc(C(C)(C)C#N)cc3cccnc23)c1)c1ccc(S(C)(=O)=O)cc1`, for which the IC50 in data set [1] amounted to 0.4 nM; in data set [2], 1 nM; on Phosphodiesterase 4 [3], 210 nM; in data set [4] it was 0.5 nM; in data set [5], 11.4 nM.
On to `[O-][n+]1cccc(C[C@@H](c2ccc(OC(F)F)c(OC3CC3)c2)c2cnc(C(O)(C(F)(F)F)C(F)(F)F)s2)c1`, for which the figures for the inhibition in vivo at 0.5 mg/kg/day in the data set on Ovis aries [13] and with Ovis aries [15] were 68% and 92%, respectively. Besides, the half-inhibitory concentration (IC50) in [1] stood at 0.4 nM; in data set [2], 0.4 nM; against Phosphodiesterase 4 [10], 5 nM; on Phosphodiesterase 4 [3] it was 90 nM; in [4], 0.4 nM; in data set [5] it was 1 nM. The Cmax in data set [14] turned out to be 1600 nM. Also, the inhibition in vivo at 0.01 mg/kg in the data set with Cavia porcellus [16] worked out at 62%.
As for `O=S(=O)(Nc1cccc(-c2cc(Cc3ccncc3)cc3cccnc23)c1)c1ccccc1`, the IC50 worked out at 3 nM in data set [1]; 5.6 nM in [2]; 7800 nM at Phosphodiesterase 4 [3]; 2 nM in [4]; 11.9 nM in data set [5]. The compound further had an Emesis_Cmax in the data set on Mustela putorius furo above 2 µM. Further, in the data set on Cavia porcellus [12], 1 mg/kg produced 46% inhibition in vivo.
For the compound `CC(C)NC(=O)/C(=C/c1cccc(-c2cc(C(C)(C)C#N)cc3cccnc23)c1)c1ccc(S(C)(=O)=O)cc1`, the IC50 in data set [1] worked out at 0.3 nM; in data set [2], 0.8 nM; on Phosphodiesterase 4 [10] it was 15 nM; against Phosphodiesterase 4 [3] it was 70 nM; in data set [4] it was 0.7 nM; in data set [5] it was 6.8 nM. The Tmax in [17] came to 6 h. Moreover, the figures for the Cmax in data set [18] and in [11] were 4100 nM and 1900 nM, respectively. In the data set with Cavia porcellus [19], this compound showed an inhibition in vivo at 0.03 mg/kg of 75%. In addition, the bioavailability in data set [20] came to 80%.
As for `CC(C)NC(=O)/C(=C/c1cccc(-c2cc(C(C)C)cc3cccnc23)c1)c1ccc(S(C)(=O)=O)cc1`, the 50% inhibitory concentration (IC50) is 0.3 nM in data set [1]; 0.3 nM in data set [2]; 140 nM on Phosphodiesterase 4 [3]; 0.6 nM in data set [4]; 2.9 nM in [5].
Take `Cc1noc(/C(=C/c2cccc(-c3cc(C(C)(C)S(C)(=O)=O)cc4cccnc34)c2)c2ccc(S(C)(=O)=O)cc2)n1`: the inhibition in vivo at 0.5 mg/kg/day in the data set with Ovis aries [13] worked out at 73%; in the data set with Ovis aries [15] it was 95%. Further, in data set [17], the Tmax stood at 6 h. The results for the Cmax in [18] and in data set [11] were 5100 nM and 3800 nM, respectively. The compound further displayed a bioavailability in [20] of 100%.
As to `Cc1noc(/C(=C/c2cccc(-c3cc(C(C)C)cc4cccnc34)c2)c2ccc(S(C)(=O)=O)cc2)n1`, the IC50 stood at 0.07 nM in [1]; 0.16 nM in data set [2]; 260 nM on Phosphodiesterase 4 [3]; 0.2 nM in [4]; 1.2 nM in data set [5]. In addition, the Tmax in [17] stood at 0.5 h. The same compound showed a Cmax in data set [18] of 500 nM. The bioavailability in data set [20] came to 11%.
`CC(C)c1cc(-c2cccc(C(Cc3ccncc3)c3ccc(Cl)cc3)c2)c2ncccc2c1` (stereo not given): the 50% inhibitory concentration (IC50) came out at 6.4 nM in data set [1]; 11.8 nM in [2]; 31000 nM at Phosphodiesterase 4 [3]; 38 nM in data set [4]; 22 nM in data set [5].
As to `COc1ccc([C@H](Cc2ccncc2)c2ccccc2)cc1OC1CCCC1` [CDP840], the inhibition in vivo at 0.5 mg/kg/day was 39% in the data set on Ovis aries [13] and 88% in the data set on Ovis aries [15]. The half-maximal inhibitory concentration (IC50) is 1.4 nM in [1]; 2.1 nM in [2]; 600 nM against Phosphodiesterase 4 [10]; 14000 nM against Phosphodiesterase 4 [3]; 4.5 nM in [5]. In addition, the Cmax in [21] stood at 2500 nM; in data set [11], 4000 nM. Besides, the inhibition in vivo at 1 mg/kg in the data set on Cavia porcellus [12] stood at 54%.

What is called IC50 is the concentration at which inhibition is half-maximal. As usually defined, the inhibition in vivo is the share of the control response that was lost under treatment. In general, Tmax refers to the time at which the peak concentration occurs. What is called bioavailability is the share of a dose that reaches the circulation, judged against a reference dose that is usually intravenous.
